The data set has as its system CCRIS mutagenicity, Ames/micronucleus/aberration tests. Description: CCRIS mutagenicity studies.
[1] abbreviates: Test System: AMES SALMONELLA TYPHIMURIUM, Strain/Indicator: TA1535, Metabolic Activation: NONE, Method: PREINCUBATION
Setting [2] is: Test System: AMES SALMONELLA TYPHIMURIUM, Strain/Indicator: TA98, Metabolic Activation: NONE, Method: STANDARD PLATE.
Setting [3] is: Test System: AMES SALMONELLA TYPHIMURIUM, Strain/Indicator: TA100, Metabolic Activation: NONE, Method: STANDARD PLATE.
Where [4] appears, read: Test System: AMES SALMONELLA TYPHIMURIUM, Strain/Indicator: TA97, Metabolic Activation: HAMSTER, LIVER, S-9, AROCLOR 1254 (10 OR 30%), Method: PREINCUBATION
[5] abbreviates: Test System: AMES SALMONELLA TYPHIMURIUM, Strain/Indicator: TA97, Metabolic Activation: NONE, Method: PREINCUBATION
Setting [6] is: Test System: AMES SALMONELLA TYPHIMURIUM, Strain/Indicator: TA97, Metabolic Activation: RAT, LIVER, S-9, AROCLOR 1254 (10 OR 30%), Method: PREINCUBATION
Setting [7] is: Test System: AMES SALMONELLA TYPHIMURIUM, Strain/Indicator: TA98, Metabolic Activation: HAMSTER, LIVER, S-9, AROCLOR 1254 (10 OR 30%), Method: PREINCUBATION
The mark [8] stands for this setting: Test System: AMES SALMONELLA TYPHIMURIUM, Strain/Indicator: TA98, Metabolic Activation: NONE, Method: PREINCUBATION
Where [9] appears, read: Test System: AMES SALMONELLA TYPHIMURIUM, Strain/Indicator: TA98, Metabolic Activation: RAT, LIVER, S-9, AROCLOR 1254 (10 OR 30%), Method: PREINCUBATION
Setting [10] is: Test System: AMES SALMONELLA TYPHIMURIUM, Strain/Indicator: TA100, Metabolic Activation: HAMSTER, LIVER, S-9, AROCLOR 1254 (10 OR 30%), Method: PREINCUBATION
[11] abbreviates: Test System: AMES SALMONELLA TYPHIMURIUM, Strain/Indicator: TA100, Metabolic Activation: NONE, Method: PREINCUBATION
The mark [12] stands for this setting: Test System: AMES SALMONELLA TYPHIMURIUM, Strain/Indicator: TA100, Metabolic Activation: RAT, LIVER, S-9, AROCLOR 1254 (10 OR 30%), Method: PREINCUBATION
Where [13] appears, read: Test System: AMES SALMONELLA TYPHIMURIUM, Strain/Indicator: TA1535, Metabolic Activation: HAMSTER, LIVER, S-9, AROCLOR 1254 (10 OR 30%), Method: PREINCUBATION
Where [14] appears, read: Test System: AMES SALMONELLA TYPHIMURIUM, Strain/Indicator: TA1535, Metabolic Activation: RAT, LIVER, S-9, AROCLOR 1254 (10 OR 30%), Method: PREINCUBATION

We go through eight compounds from PubChem BioAssay AID1259407 (Chemical Carcinogenesis Research Information System (CCRIS), 2018).

The structures appear in SMILES notation. The source made the active and inactive calls. The rule behind the calls is not given here.

As for `O=C(CCCN1CC=C(n2c(=O)[nH]c3ccccc32)CC1)c1ccc(F)cc1`, the mutagenic call (End Point: IN VITRO CHROMOSOMAL ABERRATIONS, Test System: HUMAN LYMPHOCYTES, Metabolic Activation: NONE) is “inactive; negative”.
Turning to `C/C=C1/C[C@@H](C)[C@](O)(CO)C(=O)OCC2=CC[N+]3([O-])CC[C@@H](OC1=O)[C@@H]23` (stereo partly specified), under “Test System: AMES SALMONELLA TYPHIMURIUM, Strain/Indicator: TA100, Metabolic Activation: RAT, LIVER, S-9, SODIUM PHENOBARBITAL AND BETA-NAPHTHOFLAVONE, Method: PREINCUBATION”, the mutagenic call was “inactive; negative”.
For `CC(=O)NNc1ccc(CO)cc1`, the mutagenic call reads like this: (Test System: AMES SALMONELLA TYPHIMURIUM, Strain/Indicator: TA104, Metabolic Activation: MUSHROOM TYROSINASE, Method: PREINCUBATION) “active; positive”; (Test System: AMES SALMONELLA TYPHIMURIUM, Strain/Indicator: TA104, Metabolic Activation: NONE, Method: PREINCUBATION) “inactive; negative”; (Test System: AMES SALMONELLA TYPHIMURIUM, Strain/Indicator: TA104, Metabolic Activation: RAT, LIVER, CYTOSOL AND MICROSOMES, AROCLOR 1254, NADPH, Method: PREINCUBATION) “active; positive”; (Test System: AMES SALMONELLA TYPHIMURIUM, Strain/Indicator: TA104, Metabolic Activation: RAT, LIVER, CYTOSOL AND MICROSOMES, AROCLOR 1254, Method: PREINCUBATION) “inactive; negative”; (Test System: AMES SALMONELLA TYPHIMURIUM, Strain/Indicator: TA104, Metabolic Activation: RAT, LIVER, CYTOSOL, AROCLOR 1254, Method: PREINCUBATION) “inactive; negative”; (Test System: AMES SALMONELLA TYPHIMURIUM, Strain/Indicator: TA104, Metabolic Activation: RAT, LIVER, MICROSOMES, AROCLOR 1254, NADPH, Method: PREINCUBATION) “inactive; negative”. For the same compound, the mutagenic call by setting is: under setting [1], “inactive; negative”; (Test System: AMES SALMONELLA TYPHIMURIUM, Strain/Indicator: TA1535, Metabolic Activation: RAT, LIVER, S-9, AROCLOR 1254, Method: PREINCUBATION) “inactive; negative”; (Test System: AMES SALMONELLA TYPHIMURIUM, Strain/Indicator: TA1537, Metabolic Activation: NONE, Method: PREINCUBATION) “active; positive”; (Test System: AMES SALMONELLA TYPHIMURIUM, Strain/Indicator: TA1537, Metabolic Activation: RAT, LIVER, S-9, AROCLOR 1254, Method: PREINCUBATION) “inactive; negative”.
As to `Nc1ccc2ccc3cccc4ccc1c2c34`, the mutagenic call is, setting by setting: (End Point: IN VITRO CHROMOSOMAL ABERRATIONS, Test System: CHINESE HAMSTER LUNG (CHL) CELLS, Metabolic Activation: NONE) “inactive; negative”; (Test System: AMES SALMONELLA TYPHIMURIUM, Strain/Indicator: TA98(1,8-DNP6), Metabolic Activation: NONE, Method: STANDARD PLATE) “active; positive”; (Test System: AMES SALMONELLA TYPHIMURIUM, Strain/Indicator: TA98(1,8-DNP6), Metabolic Activation: RAT, LIVER, S-9, AROCLOR 1254, Method: STANDARD PLATE) “active; positive”; (Test System: AMES SALMONELLA TYPHIMURIUM, Strain/Indicator: TA98(NR), Metabolic Activation: NONE, Method: STANDARD PLATE) “active; positive”; (Test System: AMES SALMONELLA TYPHIMURIUM, Strain/Indicator: TA98(NR), Metabolic Activation: RAT, LIVER, S-9, AROCLOR 1254, Method: STANDARD PLATE) “active; positive”; under setting [2], “active; positive”. The mutagenic call by setting is: (Test System: AMES SALMONELLA TYPHIMURIUM, Strain/Indicator: TA98, Metabolic Activation: RAT, LIVER, S-9, AROCLOR 1254 (2 OR 4%), Method: STANDARD PLATE) “active; positive”; under setting [3], “inactive; negative”; (Test System: AMES SALMONELLA TYPHIMURIUM, Strain/Indicator: TA100, Metabolic Activation: RAT, LIVER, S-9, AROCLOR 1254 (4%), Method: STANDARD PLATE) “inactive; negative”; (Test System: AMES SALMONELLA TYPHIMURIUM, Strain/Indicator: TA100, Metabolic Activation: RAT, LIVER, S-9, AROCLOR 1254, Method: STANDARD PLATE) “active; positive”; (Test System: AMES SALMONELLA TYPHIMURIUM, Strain/Indicator: TA1535, Metabolic Activation: RAT, LIVER, S-9, AROCLOR 1254 (4%), Method: STANDARD PLATE) “inactive; negative”; (Test System: AMES SALMONELLA TYPHIMURIUM, Strain/Indicator: TA1537, Metabolic Activation: RAT, LIVER, S-9, AROCLOR 1254 (4%), Method: STANDARD PLATE) “inactive; negative”. The mutagenic call reads like this: (Test System: AMES SALMONELLA TYPHIMURIUM, Strain/Indicator: TA1537, Metabolic Activation: RAT, LIVER, S-9, AROCLOR 1254, Method: STANDARD PLATE) “active; positive”; (Test System: AMES SALMONELLA TYPHIMURIUM, Strain/Indicator: TA1538, Metabolic Activation: NONE, Method: STANDARD PLATE) “inactive; negative”; (Test System: AMES SALMONELLA TYPHIMURIUM, Strain/Indicator: TA1538, Metabolic Activation: RAT, LIVER, S-9, AROCLOR 1254, Method: STANDARD PLATE) “active; positive”.
Consider `Cc1c(C)c2c(c(C)c1OC(=O)CCC(=O)O)CC[C@@](C)(CCC[C@H](C)CCC[C@H](C)CCCC(C)C)O2`, for which the mutagenic call by setting is: under setting [4], “inactive; negative”; under setting [5], “inactive; negative”; under setting [6], “inactive; negative”; under setting [7], “inactive; negative”; under setting [8], “inactive; negative”; under setting [9], “inactive; negative”. The mutagenic call reads like this: under setting [10], “inactive; negative”; under setting [11], “inactive; negative”; under setting [12], “inactive; negative”; under setting [13], “inactive; negative”; under setting [1], “inactive; negative”; under setting [14], “inactive; negative”.
On to `CNC(N)=O`, for which the mutagenic call (End Point: IN VITRO MICRONUCLEUS, Test System: V79 CELLS, Metabolic Activation: NONE) is “inactive; negative”.
With `COc1ccc2c3c(cccc13)OC([N+](=O)[O-])=C2`, the mutagenic call by setting is: under setting [2], “inactive; negative”; (Test System: AMES SALMONELLA TYPHIMURIUM, Strain/Indicator: TA98, Metabolic Activation: S-9, Method: STANDARD PLATE) “inactive; negative”; under setting [3], “active; positive”; (Test System: AMES SALMONELLA TYPHIMURIUM, Strain/Indicator: TA100, Metabolic Activation: S-9, Method: STANDARD PLATE) “inactive; negative”.
Turning to `C=C(CC)C(=O)c1ccc(OCC(=O)O)c(Cl)c1Cl`, the mutagenic call is, setting by setting: under setting [4], “inactive; negative”; under setting [5], “inactive; negative”; under setting [6], “inactive; negative”; under setting [7], “inactive; negative”; under setting [8], “inactive; negative”; under setting [9], “inactive; negative”. Moreover, the mutagenic call by setting is: under setting [10], “inactive; negative”; under setting [11], “inactive; negative”; under setting [12], “inactive; negative”; under setting [13], “inactive; negative”; under setting [1], “inactive; negative”; under setting [14], “inactive; negative”.
